Data on two compounds can be found in ChEMBL document CHEMBL1134452, “Novel inhibitors of mitochondrial respiratory chain: endoperoxides from the marine tunicate Stolonica socialis” (J Med Chem, 2001).

This experiment can be described thus: Compound was tested for inhibitory activity on mitochondrial electron transport using submitochondrial particles (SMP) from beef heart. It counts as functional, Bos taurus.

Broadly, the IC50 is the concentration needed to halve the response being measured. The low end stands for greater potency, the high end for weaker potency. `C=CCC/C=C/C=C/CCCCCC[C@H]1CC[C@H]([C@@H]2CC[C@@H](CC(=O)OC)OO2)O1` yielded an IC50 of less than 1000 nM. `C=CCC/C=C/C=C/CCCCCC[C@@H]1CC[C@@H]([C@@H]2CC[C@@H](CC(=O)OC)OO2)O1` came in with an IC50 of less than 1000 nM.
